Columns and labels:
Type in all cases: in vivo
bean = assay: Phytotoxicity Test, bean; conditions: 2500 parts per million; ten days
Experimental: (§1) Suspensions of the test compouns were prepared by dissolving one gram of compound in 50 milliliters of acetone in which had been dissolved 0.1 gram (10 percent of the weight of compound) of an alkylphenoxy polyethoxyethanol surfactant, as an emulsifying or dispersing agent. The resulting solution was mixed into 150 milliliters of water to give roughly 200 milliliters of a suspension containing the compound in finely divided form. The thus-prepared stock suspension contained 0.5 percent by weight of compound. The test concentrations in parts per million by weight employed in the tests described hereinbelow were obtained by appropriate dilutions of the stock suspension with water. The test procedures were as follows:
(§2) Experiments were also conducted to determine the phytotoxicity of representative compositions with respect to healthy fresh plants. Solutions of the compounds were prepared as described above to provide a concentration of 2500 parts per million of the test compound. The test plants were sprayed in accordance with the procedure described above for the Mite Foliage Spray Test so as to deliver approximately 100 milliliters of test solution to the leaves of each plant tested. The sprayed plants and controls were set aside for approximately one hour to allow the foliage to dry and were then placed in the greenhouse. After ten days the plants were visually inspected to determine the extent of foliage injury. A rating of 1 indicates no perceptible injury; 5 indicates the plant was dead and ratings of 2, 3 and 4 indicate intermediate degrees of injury based upon the number and extent to which leaves were injured.

[1] = tested on: bean, corn, tomato or cotton; assay: Phytotoxicity Test, crop plants overall; conditions: text statement
Experimental: (§3) Each of the new compounds were evaluated in comparison with known similar prior art compounds to determine their comparative pesticidal activity against mites and certain insects, including an aphid, caterpillar, a beetle and a fly. The new compounds were also tested for phytotoxicity on important economic crops including bean, corn, tomato and cotton. The new compounds were further evaluated for mammalian toxicity.
as §1, §2

corn = assay: Phytotoxicity Test, corn; conditions: 2500 parts per million; ten days
Experimental: as §1
as §2, with “After ten days the plants were visually inspected to determine the extent of foliage injury. A rating of 1 indicates no perceptible injury; 5 indicates the plant was dead and ratings of 2, 3 and 4 indicate intermediate degrees of injury based upon the number and extent to which leaves were injured.” left out

tomato = assay: Phytotoxicity Test, tomato; conditions: 2500 parts per million; ten days
Experimental: as §1
as §2, with “After ten days the plants were visually inspected to determine the extent of foliage injury. A rating of 1 indicates no perceptible injury; 5 indicates the plant was dead and ratings of 2, 3 and 4 indicate intermediate degrees of injury based upon the number and extent to which leaves were injured.” left out

insects = assay: Insect toxicity, overall; conditions: text statement
Experimental: as §3, §1
In Table 1 are presented insect and rat toxicity data (bait tests) on a comparative basis of the compounds described above. […] Rat toxicity is also more meaningfully compared on the basis of molar weight LD50 values. The relative efficacy of the parent compounds as compared to the previously known derivatives and as compared to the new compounds of this invention is also shown in Table 1. The ratio of efficacy as contact poisons (immersion/bait) of the compounds tested against Armyworm and House Fly is presented in Table 2 along with the results of the phytotoxicity tests of the compounds on bean, corn, tomato and cotton.

CNC(=O)ON=C(C)SC [Compound 1, O-(methylcarbamoyl) S-methyl acetothiolhydroximate]
Phytotoxicity, Bean (bean): BuCl 2 | phytotoxicity (in words) [1]: phytotoxic to one or more of the crop plants

CNC(=O)ON=C(C)SC(C)C [Compound 2]
Phytotoxicity, Bean (bean): Bu 2 | phytotoxicity (in words) [1]: phytotoxic to one or more of the crop plants | Phytotoxicity, Corn (corn): Bu 2

CCSC(C)=NOC(=O)NC [Compound 3]
Phytotoxicity, Tomato (tomato): 2 | Phytotoxicity, Bean (bean): 2

CSC(C)=NOC(=O)N(C)Sc1ccc(Cl)cc1 [Compound 4]
Phytotoxicity, Bean (bean): Trif. 3

CC(=NOC(=O)N(C)Sc1ccc(Cl)cc1)SC(C)C [Compound 5]
Phytotoxicity, Bean (bean): Trif. 3

CSC(C)=NOC(=O)N(C)Sc1ccc(C(C)(C)C)cc1 [Compound 8, O-[N-Methyl-N-[4-(t-butylphenyl)sulfenyl]carbamoyl] S-Methyl Acetothiolhydroximate]
insect toxicity / pesticidal activity (in words) (insects): dramatic improvement in toxicity against all insects tested with the exception of house fly | insect toxicity / pesticidal activity (in words) (insects; listed as O-[ N-methyl-N-[4-(t-butylphenyl)sulfenyl] carbamoyl] S-methyl acetothiolhydroxi): exceptionally high insecticidal activity against aphid, armyworm and bean beetle | phytotoxicity (in words) [1]: very low phytotoxicity

CC(=NOC(=O)N(C)Sc1ccc(C(C)(C)C)cc1)SC(C)C [Compound 9, O-[N-Methyl-N-[4-(t-Butylphenyl)sulfenyl]carbamoyl] S-Isopropyl Thiolacetohydroximate]
contact / stomach poison properties for insects (in words) (insects): dramatically superior contact poison characteristics | insect toxicity / pesticidal activity (in words) (insects): dramatic improvement in activity against all insect species, again with the exception of house fly | contact / stomach poison properties for insects (in words) (insects; listed as O-[ N-methyl-N-[4-(t-butylphenyl) sulfenyl] carbamoyl] S-isopropyl thiolacetohyd): outstanding stomach poison against insects and also appears to be the most powerful contact poison for insects among all of the compositions tested | phytotoxicity (in words) [1]: extremely low phytotoxicity
